Test results published in ChEMBL document CHEMBL3882388, “Pharmaceutical Compositions Comprising Beta-Lactam Antibiotic, Sulbactam and Beta-Lactamase Inhibitor” (2014).

What was measured:
[1] = molecular target: Beta-lactamase (Acinetobacter baumannii) (UniProt Q8RLA6); assay: Inhibition of beta-lactamase in extended-spectrum b-lactamase producing Acinetobacter baumannii S-15 assessed as potentiation of cefpirome-induced antibacterial activity by measuring cefpirome MIC at 4 to 8 ug/ml incubated for 16 to 20 hrs by CLSI method
[2] = molecular target: Beta-lactamase (Acinetobacter baumannii) (UniProt Q8RLA6); assay: Inhibition of beta-lactamase in extended-spectrum b-lactamase producing Acinetobacter baumannii NCTC 13305 assessed as potentiation of cefpirome-induced antibacterial activity by measuring cefpirome MIC at 4 to 8 ug/ml incubated for 16 to 20 hrs by CLSI method
[3] = molecular target: Beta-lactamase (Acinetobacter baumannii) (UniProt Q8RLA6); assay: Inhibition of beta-lactamase in extended-spectrum b-lactamase producing Acinetobacter baumannii NCTC 13305 assessed as potentiation of cefepime-induced antibacterial activity by measuring cefepime MIC at 4 to 8 ug/ml incubated for 16 to 20 hrs by CLSI method
[4] = molecular target: Beta-lactamase (Acinetobacter baumannii) (UniProt Q8RLA6); assay: Inhibition of beta-lactamase in extended-spectrum b-lactamase producing Acinetobacter baumannii NCTC 13304 assessed as potentiation of cefepime-induced antibacterial activity by measuring cefepime MIC at 4 to 8 ug/ml incubated for 16 to 20 hrs by CLSI method
[5] = molecular target: Beta-lactamase (Acinetobacter baumannii) (UniProt Q8RLA6); assay: Inhibition of beta-lactamase in extended-spectrum b-lactamase producing Acinetobacter baumannii S-3 assessed as potentiation of cefepime-induced antibacterial activity by measuring cefepime MIC at 4 to 8 ug/ml incubated for 16 to 20 hrs by CLSI method
[6] = molecular target: Beta-lactamase (Acinetobacter baumannii) (UniProt Q8RLA6); assay: Inhibition of beta-lactamase in extended-spectrum b-lactamase producing Acinetobacter baumannii S-10 assessed as potentiation of cefpirome-induced antibacterial activity by measuring cefpirome MIC at 4 to 8 ug/ml incubated for 16 to 20 hrs by CLSI method
[7] = molecular target: Beta-lactamase (Acinetobacter baumannii) (UniProt Q8RLA6); assay: Inhibition of beta-lactamase in extended-spectrum b-lactamase producing Acinetobacter baumannii NCTC 13301 assessed as potentiation of cefepime-induced antibacterial activity by measuring cefepime MIC at 4 to 8 ug/ml incubated for 16 to 20 hrs by CLSI method
[8] = molecular target: Beta-lactamase (Acinetobacter baumannii) (UniProt Q8RLA6); assay: Inhibition of beta-lactamase in extended-spectrum b-lactamase producing Acinetobacter baumannii S-8 assessed as potentiation of cefpirome-induced antibacterial activity by measuring cefpirome MIC at 4 to 8 ug/ml incubated for 16 to 20 hrs by CLSI method
[9] = molecular target: Beta-lactamase (Acinetobacter baumannii) (UniProt Q8RLA6); assay: Inhibition of beta-lactamase in extended-spectrum b-lactamase producing Acinetobacter baumannii S-8 assessed as potentiation of cefepime-induced antibacterial activity by measuring cefepime MIC at 4 to 8 ug/ml incubated for 16 to 20 hrs by CLSI method
[10] = molecular target: Beta-lactamase (Acinetobacter baumannii) (UniProt Q8RLA6); assay: Inhibition of beta-lactamase in extended-spectrum b-lactamase producing Acinetobacter baumannii S-10 assessed as potentiation of cefepime-induced antibacterial activity by measuring cefepime MIC at 4 to 8 ug/ml incubated for 16 to 20 hrs by CLSI method
[11] = molecular target: Beta-lactamase (Acinetobacter baumannii) (UniProt Q8RLA6); assay: Inhibition of beta-lactamase in extended-spectrum b-lactamase producing Acinetobacter baumannii NCTC 13301 assessed as potentiation of cefpirome-induced antibacterial activity by measuring cefpirome MIC at 4 to 8 ug/ml incubated for 16 to 20 hrs by CLSI method
[12] = molecular target: Beta-lactamase (Acinetobacter baumannii) (UniProt Q8RLA6); assay: Inhibition of beta-lactamase in extended-spectrum b-lactamase producing Acinetobacter baumannii S-4 assessed as potentiation of cefpirome-induced antibacterial activity by measuring cefpirome MIC at 4 to 8 ug/ml incubated for 16 to 20 hrs by CLSI method
[13] = molecular target: Beta-lactamase (Acinetobacter baumannii) (UniProt Q8RLA6); assay: Inhibition of beta-lactamase in extended-spectrum b-lactamase producing Acinetobacter baumannii S-4 assessed as potentiation of cefepime-induced antibacterial activity by measuring cefepime MIC at 4 to 8 ug/ml incubated for 16 to 20 hrs by CLSI method
[14] = molecular target: Beta-lactamase (Acinetobacter baumannii) (UniProt Q8RLA6); assay: Inhibition of beta-lactamase in extended-spectrum b-lactamase producing Acinetobacter baumannii NCTC 13304 assessed as potentiation of cefpirome-induced antibacterial activity by measuring cefpirome MIC at 4 to 8 ug/ml incubated for 16 to 20 hrs by CLSI method
[15] = molecular target: Beta-lactamase (Acinetobacter baumannii) (UniProt Q8RLA6); assay: Inhibition of beta-lactamase in extended-spectrum b-lactamase producing Acinetobacter baumannii S-3 assessed as potentiation of cefpirome-induced antibacterial activity by measuring cefpirome MIC at 4 to 8 ug/ml incubated for 16 to 20 hrs by CLSI method
[16] = molecular target: Beta-lactamase (Acinetobacter baumannii) (UniProt Q8RLA6); assay: Inhibition of beta-lactamase in extended-spectrum b-lactamase producing Acinetobacter baumannii S-15 assessed as potentiation of cefepime-induced antibacterial activity by measuring cefepime MIC at 4 to 8 ug/ml incubated for 16 to 20 hrs by CLSI method

Beta-lactamase (Acinetobacter baumannii), sequence (Q8RLA6 as listed by the source): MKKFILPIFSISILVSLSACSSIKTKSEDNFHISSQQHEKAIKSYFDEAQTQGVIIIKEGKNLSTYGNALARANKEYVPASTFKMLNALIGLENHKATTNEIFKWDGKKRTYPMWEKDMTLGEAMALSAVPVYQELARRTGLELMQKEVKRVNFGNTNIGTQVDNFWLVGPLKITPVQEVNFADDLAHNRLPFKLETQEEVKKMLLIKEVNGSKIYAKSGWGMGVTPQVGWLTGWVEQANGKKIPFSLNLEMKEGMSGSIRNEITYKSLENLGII

## CC1(C)[C@H](C(=O)O)N2C(=O)C[C@H]2S1(=O)=O
[1]
  MIC: 32 µg/mL
[2]
  MIC: 8 µg/mL
[3]
  MIC: 4 µg/mL
[4]
  MIC: > 32 µg/mL
[5]
  MIC: > 32 µg/mL
[6]
  MIC: > 32 µg/mL
[7]
  MIC: > 32 µg/mL
[8]
  MIC: 32 µg/mL
[9]
  MIC: 32 µg/mL
[10]
  MIC: > 32 µg/mL
[11]
  MIC: > 32 µg/mL
[12]
  MIC: > 32 µg/mL
[13]
  MIC: > 32 µg/mL
[14]
  MIC: 32 µg/mL
[15]
  MIC: > 32 µg/mL
[16]
  MIC: > 32 µg/mL
